Laboratory results taken from ChEMBL document CHEMBL2074430, “Transient expression of oatp organic anion transporter in mammalian cells: identification of candidate substrates” (Am J Physiol, 1996).

Key:
Format in all cases: functional, cell-based
Details in all cases: human
[1] = biological target: T1, Solute carrier organic anion transporter family member 1A1 (Rattus norvegicus, UniProt P46720); assay: TP_TRANSPORTER: inhibition of BSP uptake (BSP: 1 uM, Corticosterone: 100 uM) in Oatp1-expressing HeLa cells
T1 sequence (P46720 whole entry): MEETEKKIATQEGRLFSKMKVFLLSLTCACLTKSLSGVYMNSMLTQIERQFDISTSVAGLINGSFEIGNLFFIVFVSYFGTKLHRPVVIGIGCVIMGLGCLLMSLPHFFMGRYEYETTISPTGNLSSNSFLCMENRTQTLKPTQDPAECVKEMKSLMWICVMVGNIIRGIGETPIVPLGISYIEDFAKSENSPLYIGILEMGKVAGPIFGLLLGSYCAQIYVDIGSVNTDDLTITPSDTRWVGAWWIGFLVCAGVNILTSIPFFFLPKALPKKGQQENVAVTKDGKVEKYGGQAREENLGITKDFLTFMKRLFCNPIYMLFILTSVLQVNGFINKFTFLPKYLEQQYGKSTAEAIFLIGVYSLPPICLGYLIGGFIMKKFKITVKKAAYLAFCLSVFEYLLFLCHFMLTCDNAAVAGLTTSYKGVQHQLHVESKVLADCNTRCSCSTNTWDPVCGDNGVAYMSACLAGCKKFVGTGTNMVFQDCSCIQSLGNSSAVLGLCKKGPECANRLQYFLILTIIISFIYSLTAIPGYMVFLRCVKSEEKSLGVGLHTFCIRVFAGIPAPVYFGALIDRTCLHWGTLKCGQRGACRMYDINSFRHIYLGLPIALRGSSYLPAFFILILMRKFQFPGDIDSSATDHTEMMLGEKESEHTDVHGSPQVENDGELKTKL

[2] = biological target: T1, Solute carrier organic anion transporter family member 1A1; assay: TP_TRANSPORTER: inhibition of BSP uptake (BSP: 1 uM, Aldosterone: 100 uM) in Oatp1-expressing HeLa cells
[3] = biological target: T1, Solute carrier organic anion transporter family member 1A1; assay: TP_TRANSPORTER: uptake in Oatp1-expressing HeLa cells
[4] = biological target: T1, Solute carrier organic anion transporter family member 1A1; assay: TP_TRANSPORTER: inhibition of BSP uptake (BSP: 1 uM, Spironolactone: 100 uM) in Oatp1-expressing HeLa cells
[5] = biological target: T1, Solute carrier organic anion transporter family member 1A1; assay: TP_TRANSPORTER: inhibition of BSP uptake (BSP: 1 uM, Hydrocortisone: 100 uM) in Oatp1-expressing HeLa cells

**Q.** How did the Activity [1] turn out when `C[C@]12C[C@H](O)[C@H]3[C@@H](CCC4=CC(=O)CC[C@@]43C)[C@@H]1CC[C@@H]2C(=O)CO` [CORTICOSTERONE] was run?
**A.** inhibitor [(at a rough estimate) 15 % of control]

**Q.** With `C[C@]12CCC(=O)C=C1CC[C@@H]1[C@@H]2[C@@H](O)C[C@]2(C=O)[C@@H](C(=O)CO)CC[C@@H]12` [ALDOSTERONE] as the compound, how does the Activity [2] read?
**A.** inhibitor [(at a rough estimate) 20 % of control]

**Q.** How did the Activity [3] turn out when `Nc1ccc(C(=O)NCC(=O)O)cc1` [AMINOHIPPURIC ACID] was run?
**A.** is not a substrate [-]

**Q.** For `CCCCC[C@H](O)/C=C/[C@H]1[C@H](O)CC(=O)[C@@H]1C/C=C\CCCC(=O)O` [DINOPROSTONE], which Activity [3] is on record?
**A.** is not a substrate [-]

**Q.** With `CC(=O)S[C@@H]1CC2=CC(=O)CC[C@]2(C)[C@H]2CC[C@@]3(C)[C@@H](CC[C@@]34CCC(=O)O4)[C@H]12` [SPIRONOLACTONE] as the compound, how does the Activity [4] read?
**A.** inhibitor [(at a rough estimate) 10 % of control]

**Q.** With `C[C@]12CCC(=O)C=C1CC[C@@H]1[C@@H]2[C@@H](O)C[C@@]2(C)[C@H]1CC[C@]2(O)C(=O)CO` [HYDROCORTISONE] as the compound, how does the Activity [5] read?
**A.** inhibitor [(at a rough estimate) 30 % of control]
